The text below walks through data of publication PMC7226869 (ACS Omega, 2020).

Where two headings read alike, the source gives them in different places.

Assay [1] addresses T1, New Delhi metallo-β-lactamase-1 (NDM-1) (Klebsiella pneumoniae, UniProt E9NWK5). In words: 1H-15N HSQC NMR titration. It is filed as binding.
A further assay concerns the target OXA-48 (Klebsiella pneumoniae, UniProt Q6XEC0). In words: carbapenemase inhibition at a single concentration. It is filed as biochemical. Particulars: read-out: % inhibition at 50 μM.
The target in assay [2] is T1, New Delhi metallo-β-lactamase-1 (NDM-1). In words: imipenem hydrolysis by purified NDM-1. It is filed as biochemical.
The target in the next assay is KPC-2 (Klebsiella pneumoniae, UniProt Q93LQ9). In words: carbapenemase inhibition at a single concentration. It is filed as biochemical. Particulars: read-out: % inhibition at 50 μM.
Assay [3] concerns the target T1, New Delhi metallo-β-lactamase-1 (NDM-1). In words: imipenem hydrolysis by purified NDM-1. It is filed as biochemical. The source holds these as a separate data set.

Sequence of OXA-48 (Q6XEC0 23-265 limits assumed): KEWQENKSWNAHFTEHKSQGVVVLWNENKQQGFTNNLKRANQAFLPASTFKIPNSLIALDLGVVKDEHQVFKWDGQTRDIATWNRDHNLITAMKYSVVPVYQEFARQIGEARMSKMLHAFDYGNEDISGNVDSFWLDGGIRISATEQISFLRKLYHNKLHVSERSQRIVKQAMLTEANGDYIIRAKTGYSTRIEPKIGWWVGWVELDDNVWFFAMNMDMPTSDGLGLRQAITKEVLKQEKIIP

As usually defined, the Kd is the constant that tells how readily two partners part at equilibrium. Low readings indicate tighter binding, high ones weaker binding. For the molecule `O=c1c(O)c(-c2ccc(O)cc2O)oc2cc(O)cc(O)c12` [morin], the Kd in assay [1] is approximately 300 µM.
A word on the inhibition: it is the share of the control response that was lost under treatment. Usually IC50 stands for the concentration needed to halve the response being measured. The low end stands for greater potency, the high end for weaker potency. Turning to `O=c1c(O)c(-c2cc(O)c(O)c(O)c2)oc2cc(O)cc(O)c12` [myricetin], the inhibition at 50 µM on OXA-48 came to 90%; at KPC-2 it was 78%. Further, in assay [2], half-maximal inhibition (IC50) was put at 3.3 µM.
Regarding `O=c1c(O)c(-c2ccc(O)c(O)c2)oc2cc(O)cc(O)c12` [quercetin], the IC50 in assay [3] was 5 to 10 µM.
